Reference: PMC4810081, “Venetoclax (ABT-199) Might Act as a Perpetrator in Pharmacokinetic Drug–Drug Interactions” (Pharmaceutics, 2016)

Key:
[1] = test system: UGT1A9; assay: Induction assay, UGT1A9 mRNA by real-time RT-PCR in LS180 cells; assay type: in vitro ADME, human; settings: four days, 10 µM
Description: (§1) LS180 cells. The human colon adenocarcinoma cell line LS180 (available at ATCC, Manassas, VA, USA) is one of the standard models for investigating pregnane X receptor (PXR) and aryl hydrocarbon receptor (AhR) mediated induction and was thus used for induction experiments. Cells were cultured under standard cell culture conditions with DMEM supplemented with 10% FCS, 2 mM of glutamine, 100 U/mL of penicillin, 100 µg/mL of streptomycin sulfate, and 0.1 mM of nonessential amino acids.
(§2) For the induction experiments, LS180 cells were seeded in 75 cm^2 culturing flasks and incubated for three days. […]
(§3) RNA was isolated using the GenElute™ Mammalian Total RNA Miniprep Kit, and cDNA was synthesized with the RevertAid™ H Minus First Strand cDNA Synthesis Kit according to the manufacturer's instructions. mRNA expression was quantified by real-time RT-PCR with the LightCycler® 480 (Roche Applied Science, Mannheim, Germany) as described previously. […] Data were evaluated via calibrator-normalized relative quantification with efficiency correction using the LightCycler® 480 software version 1.5 (Roche Applied Science, Mannheim, Germany). […] The following target genes were quantified: CYP1A1, CYP1A2, CYP3A4, ABCB1, ABCC2, ABCG2, SLCO1B1 (coding for OATP1B1), UDP-glucuronosyltransferase 1A3 (UGT1A3), and UGT1A9.

[2] = test system: SLCO1B1; assay: Induction assay, SLCO1B1 mRNA by real-time RT-PCR in LS180 cells; assay type: in vitro ADME, human; settings: four days, at 5 µM
Description: as §1, §2, §3

[3] = test system: ABCB1; assay: Induction assay, ABCB1 mRNA by real-time RT-PCR in LS180 cells; assay type: in vitro ADME, human; settings: four days, at higher concentrations
Description: as §1, §2, §3

[4] = Growth inhibition assay in L-MDR1 cells; assay type: cell-based, porcine; settings: pig, L-MDR1 cells (LLC-PK1 over-expressing human ABCB1/P-gp)
Description: LLC-PK1 and L-MDR1 cells. […] L-MDR1 cells were kindly provided by A. H. Schinkel (The Netherlands Cancer Institute, Division of Experimental Therapy, Amsterdam, The Netherlands). The cells were cultured under standard cell culture conditions with medium M199 supplemented with 10% FCS, 2 mM of glutamine, 100 U/mL of penicillin, and 100 µg/mL of streptomycin sulfate. To maintain P-gp/ABCB1 expression the culture medium for L-MDR1 was supplemented with 0.64 µM of vincristine. One day before seeding the cells for the growth inhibition assay, both cell lines were fed with a vincristine-free culture medium. Growth inhibition assays in LS180 cells were conducted to determine suitable maximum concentrations for the induction assay without profound antiproliferative effects. Proliferation was quantified by crystal violet staining of the surviving cells as described previously. […] Growth inhibition assays in MDCKII, and their MRP2 or BCRP over-expressing counterparts ([…], MDCKII-BCRP) and in LLC-PK1 and the corresponding P-gp over-expressing cell line L-MDR1 were conducted to evaluate whether venetoclax sustains its efficacy in MDR cell lines.

CC1(C)CCC(CN2CCN(c3ccc(C(=O)NS(=O)(=O)c4ccc(NCC5CCOCC5)c([N+](=O)[O-])c4)c(Oc4cnc5[nH]ccc5c4)c3)CC2)=C(c2ccc(Cl)cc2)C1 [Venetoclax]
mRNA expression of UGT1A9 [1]: induced
mRNA expression of SLCO1B1 [2]: suppressed
mRNA expression of ABCB1 [3]: suppressed
IC50 ([4]; with LY335979 (P-gp inhibitor), L-MDR1 + LY335979 (1 µM)): 25.7 ± 4.1 µM
IC50 ([4]; L-MDR1, P-gp over-expressing): 53.1 ± 4.1 µM
